As a reminder, the IC50 is the point on the concentration scale where inhibition reaches its midpoint.

In this test the target is Neurogenic locus notch homolog protein 1 (Homo sapiens, UniProt P46531). Nature of the test: Inhibition of human Notch1 expressed in HEK293 cells coexpressing luciferase reporter measured after 20 hrs by steady-glo chemiluminescence assay. (In general: Reporter assays use an easily measured gene product as a stand-in for the process of interest.)
Chain of Neurogenic locus notch homolog protein 1 (P46531 whole entry): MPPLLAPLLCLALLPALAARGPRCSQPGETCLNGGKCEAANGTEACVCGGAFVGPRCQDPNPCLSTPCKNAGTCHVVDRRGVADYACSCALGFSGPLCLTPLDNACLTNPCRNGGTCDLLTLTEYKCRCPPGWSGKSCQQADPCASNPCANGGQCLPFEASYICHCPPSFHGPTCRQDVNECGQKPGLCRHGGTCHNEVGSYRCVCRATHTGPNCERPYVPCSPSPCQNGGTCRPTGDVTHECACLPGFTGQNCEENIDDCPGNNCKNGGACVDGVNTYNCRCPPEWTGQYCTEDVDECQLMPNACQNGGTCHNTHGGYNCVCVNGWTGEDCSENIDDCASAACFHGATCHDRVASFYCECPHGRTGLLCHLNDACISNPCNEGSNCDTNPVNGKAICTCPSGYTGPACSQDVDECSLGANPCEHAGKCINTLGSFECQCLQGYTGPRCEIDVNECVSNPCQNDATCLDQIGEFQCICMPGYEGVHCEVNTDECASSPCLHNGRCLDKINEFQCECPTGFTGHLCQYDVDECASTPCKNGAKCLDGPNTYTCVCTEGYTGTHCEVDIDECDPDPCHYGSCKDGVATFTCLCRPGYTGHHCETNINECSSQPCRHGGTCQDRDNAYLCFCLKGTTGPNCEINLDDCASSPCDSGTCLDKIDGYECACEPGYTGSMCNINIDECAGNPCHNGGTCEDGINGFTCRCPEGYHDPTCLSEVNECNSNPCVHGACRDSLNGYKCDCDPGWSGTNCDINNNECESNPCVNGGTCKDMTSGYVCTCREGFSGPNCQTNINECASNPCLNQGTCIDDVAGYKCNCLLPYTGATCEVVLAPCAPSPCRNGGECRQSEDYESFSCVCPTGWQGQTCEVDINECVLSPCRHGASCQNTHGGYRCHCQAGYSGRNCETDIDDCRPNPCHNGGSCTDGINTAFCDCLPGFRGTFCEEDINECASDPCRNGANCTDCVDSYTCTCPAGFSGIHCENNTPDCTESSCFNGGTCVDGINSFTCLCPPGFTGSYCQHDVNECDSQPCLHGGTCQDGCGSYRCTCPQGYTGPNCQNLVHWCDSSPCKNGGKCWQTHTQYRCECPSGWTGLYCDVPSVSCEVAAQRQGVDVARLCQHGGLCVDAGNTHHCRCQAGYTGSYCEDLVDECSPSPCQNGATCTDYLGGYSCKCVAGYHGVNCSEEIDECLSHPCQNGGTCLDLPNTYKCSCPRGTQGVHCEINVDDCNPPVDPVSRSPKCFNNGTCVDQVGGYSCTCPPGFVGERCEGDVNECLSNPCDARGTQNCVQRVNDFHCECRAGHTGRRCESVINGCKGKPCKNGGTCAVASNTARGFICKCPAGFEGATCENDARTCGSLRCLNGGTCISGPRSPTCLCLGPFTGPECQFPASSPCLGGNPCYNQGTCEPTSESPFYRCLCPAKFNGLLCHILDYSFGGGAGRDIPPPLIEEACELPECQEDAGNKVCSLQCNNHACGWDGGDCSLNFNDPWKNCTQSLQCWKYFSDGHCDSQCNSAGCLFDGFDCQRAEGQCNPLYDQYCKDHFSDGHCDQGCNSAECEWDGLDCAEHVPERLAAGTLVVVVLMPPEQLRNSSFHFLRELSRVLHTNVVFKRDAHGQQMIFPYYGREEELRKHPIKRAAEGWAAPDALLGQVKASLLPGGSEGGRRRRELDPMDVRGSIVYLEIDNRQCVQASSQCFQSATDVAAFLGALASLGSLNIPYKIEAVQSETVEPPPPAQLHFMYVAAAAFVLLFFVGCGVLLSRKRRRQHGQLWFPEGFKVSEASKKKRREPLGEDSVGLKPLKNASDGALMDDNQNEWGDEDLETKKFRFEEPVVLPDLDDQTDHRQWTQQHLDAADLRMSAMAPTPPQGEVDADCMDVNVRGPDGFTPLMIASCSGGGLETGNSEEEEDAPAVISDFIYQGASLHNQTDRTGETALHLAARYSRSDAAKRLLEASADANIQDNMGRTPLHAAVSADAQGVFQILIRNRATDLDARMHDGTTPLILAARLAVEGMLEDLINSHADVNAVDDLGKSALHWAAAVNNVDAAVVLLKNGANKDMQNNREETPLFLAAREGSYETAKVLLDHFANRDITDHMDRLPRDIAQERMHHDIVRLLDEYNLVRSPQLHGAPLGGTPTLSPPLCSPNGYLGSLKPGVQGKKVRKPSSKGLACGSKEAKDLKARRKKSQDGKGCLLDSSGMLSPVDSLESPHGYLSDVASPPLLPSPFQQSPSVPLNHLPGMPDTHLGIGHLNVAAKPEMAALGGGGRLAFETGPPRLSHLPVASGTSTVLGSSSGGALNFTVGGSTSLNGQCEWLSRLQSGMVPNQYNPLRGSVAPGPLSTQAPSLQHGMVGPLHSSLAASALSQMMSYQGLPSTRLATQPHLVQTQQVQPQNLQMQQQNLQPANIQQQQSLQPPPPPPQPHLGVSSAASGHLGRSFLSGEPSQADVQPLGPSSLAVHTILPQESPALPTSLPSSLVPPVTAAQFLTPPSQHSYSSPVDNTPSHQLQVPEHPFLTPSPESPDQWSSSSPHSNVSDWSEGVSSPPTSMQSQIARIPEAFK

The compound `Cc1noc(N2C[C@H]3CC[C@@H](C2)[C@@H]3Nc2nc3c(OCC(F)(F)F)ccc(C(F)(F)F)n3n2)n1` displayed an IC50 of over 10 µM.
Take `Cc1cc(N2C[C@H]3CC[C@@H](C2)[C@@H]3Nc2nc3c(OCC(F)F)ccc(C(F)(F)F)n3n2)ncn1`: the IC50 was over 10 µM.
For `Cc1nnc(N2C[C@H]3CC[C@@H](C2)[C@@H]3Nc2nc3c(O[C@@H](C)C(F)(F)F)ccc(C(F)(F)F)n3n2)o1` the value was over 10 µM.

For the origin of these results see BindingDB's records for doi:10.1021/acs.jmedchem.0c00909 (F. Hoffmann-La Roche, 2020).
